The IC50 is the midpoint of a concentration-inhibition curve.

The text below walks through data of ChEMBL document CHEMBL1150656, “Constituents of the stigmas of Crocus sativus and their tyrosinase inhibitory activity” (J Nat Prod, 2002).

In the test the target is T1, Tyrosinase (Agaricus bisporus, UniProt O42713).
T1 sequence (O42713 whole entry): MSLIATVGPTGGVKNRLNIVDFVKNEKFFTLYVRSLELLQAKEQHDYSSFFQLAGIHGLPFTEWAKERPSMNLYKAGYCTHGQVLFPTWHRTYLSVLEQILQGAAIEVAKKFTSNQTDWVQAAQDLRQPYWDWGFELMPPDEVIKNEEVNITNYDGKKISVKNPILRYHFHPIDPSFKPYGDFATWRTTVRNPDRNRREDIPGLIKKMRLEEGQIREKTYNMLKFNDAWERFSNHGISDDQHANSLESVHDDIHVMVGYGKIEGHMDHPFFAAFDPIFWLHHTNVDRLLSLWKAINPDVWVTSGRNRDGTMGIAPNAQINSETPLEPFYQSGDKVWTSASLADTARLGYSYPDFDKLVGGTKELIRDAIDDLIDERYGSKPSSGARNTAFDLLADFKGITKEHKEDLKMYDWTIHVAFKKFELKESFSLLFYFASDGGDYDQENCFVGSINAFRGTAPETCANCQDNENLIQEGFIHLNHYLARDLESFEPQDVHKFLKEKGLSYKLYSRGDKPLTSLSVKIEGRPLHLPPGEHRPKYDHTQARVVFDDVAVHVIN
Description: Inhibition of mushroom tyrosinase

As for `CC(/C=C/C=C(\C)C(=O)O[C@@H]1O[C@H](CO[C@@H]2O[C@H](CO)[C@@H](O)[C@H](O)[C@H]2O)[C@@H](O)[C@H](O)[C@H]1O)=C\C=C\C=C(C)\C=C\C=C(/C)C(=O)O[C@@H]1O[C@H](CO[C@@H]2O[C@H](CO)[C@@H](O)[C@H](O)[C@H]2O)[C@@H](O)[C@H](O)[C@H]1O` [CROCIN], the IC50 is 140 µM.
On to `Oc1ccc(O)cc1` [HYDROQUINONE], for which the IC50 is 4500 µM.
For `CC1=C([C@@H](O)CC(=O)O)C(C)(C)C[C@@H](O)C1` [CROCUSATIN H] the value was 870 µM; for `CC(/C=C/C=C(\C)C(=O)O)=C\C=C\C=C(C)\C=C\C=C(/C)C(=O)O[C@@H]1O[C@H](CO[C@@H]2O[C@H](CO)[C@@H](O)[C@H](O)[C@H]2O)[C@@H](O)[C@H](O)[C@H]1O` [CROCIN 3], 960 µM.
